Reference: US9012640B2, “Cabergoline derivatives” (MAP Pharmaceuticals, Inc., priority 2012, dated 2015)
Where two headings read alike, the source gives them in different places.

Assays:
[1] = target: T1, Recombinant human serotonin receptor 5-HT2B (Homo sapiens, UniProt P41595); test: Aequorin assay, receptor agonist/antagonist activity, CHO-K1 cells; format: cell-based
T1 construct: expressed in transfected cells; host or cells: CHO-K1 (coexpressing mitochondrial apoaequorin)
Method: (§1) Compound 1 was synthesized as described above and assayed for receptor activity against a panel of dopaminergic and serotoninergic receptors. Recombinant human serotonin receptors 5-HT2A, and 5-HT2B were expressed in CHO-K1 cells and activity (receptor agonist/antagonist activity) was assayed using an Aequorin assay (coexpression of mitochondrial apoaequorin). Compound 1 was used at a concentration of 0.010 nM to 20,000 nM for agonist activity and 0.005 nM to 10,000 nM for antagonist activity.

[2] = target: T2, Recombinant human serotonin receptor 5-HT2A (Homo sapiens, UniProt P28223); test: as above; format: cell-based
T2 construct: expressed in transfected cells; host or cells: CHO-K1 (coexpressing mitochondrial apoaequorin)
Method: as §1

[3] = target: T3, Recombinant human dopaminergic receptor D4 (Homo sapiens, UniProt P21917); test: GTPγS functional assay; format: biochemical
T3 sequence (P21917 1-419): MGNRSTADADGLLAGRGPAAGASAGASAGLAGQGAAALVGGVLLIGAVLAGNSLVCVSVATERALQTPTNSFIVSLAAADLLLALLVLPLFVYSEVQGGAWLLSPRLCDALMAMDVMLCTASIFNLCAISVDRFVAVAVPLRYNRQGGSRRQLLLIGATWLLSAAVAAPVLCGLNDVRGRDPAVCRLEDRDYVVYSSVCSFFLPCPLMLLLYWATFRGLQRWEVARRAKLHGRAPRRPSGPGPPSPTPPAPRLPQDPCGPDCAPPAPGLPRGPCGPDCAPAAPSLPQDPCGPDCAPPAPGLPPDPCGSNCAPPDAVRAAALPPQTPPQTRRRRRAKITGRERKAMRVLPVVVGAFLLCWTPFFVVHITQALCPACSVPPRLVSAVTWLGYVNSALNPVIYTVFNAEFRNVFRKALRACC
Method: (§2) Recombinant human dopaminergic receptor D1, D2L, and D4 and serotonin receptor 5-HT1B and 5-HTID activity was assayed using a GTPΥS functional assay with Compound 1 at concentrations between 0.01 nM and 10,000 nM.

[4] = target: Recombinant human dopaminergic receptor D2L (Homo sapiens, UniProt P14416); test: GTPγS functional assay; format: biochemical; conditions: read-out: EC50, agonist activity with the D2L receptor
Method: as §2

[5] = target: T4, serotonin receptor 5-HT1D (Homo sapiens, UniProt P28221); test: GTPγS functional assay; format: biochemical
Method: as §2

[6] = target: Recombinant human dopaminergic receptor D1 (Homo sapiens, UniProt P21728); test: GTPγS functional assay; format: biochemical
Method: as §2

[7] = target: T5, serotonin receptor 5-HT1B (Homo sapiens, UniProt P28222); test: GTPγS functional assay; format: biochemical; conditions: 0.01 nM to 10,000 nM
Method: as §2

[8] = target: T5, serotonin receptor 5-HT1B; conditions: read-out: EC50 on 5-HT1B receptors, reported; Newman-Tancredi et al. 2002; cited from earlier work
[9] = target: T2, Recombinant human serotonin receptor 5-HT2A; conditions: reported, Newman-Tancredi et al. 2002; read-out: reported EC50 on 5-HT2A receptors; cited from earlier work
[10] = target: T3, Recombinant human dopaminergic receptor D4; conditions: cited from earlier work
[11] = target: T1, Recombinant human serotonin receptor 5-HT2B; conditions: reported, Newman-Tancredi et al. 2002; read-out: reported EC50 on 5-HT2B receptors; cited from earlier work
[12] = target: T4, serotonin receptor 5-HT1D; conditions: cited from earlier work

T1 sequence (P41595 whole entry): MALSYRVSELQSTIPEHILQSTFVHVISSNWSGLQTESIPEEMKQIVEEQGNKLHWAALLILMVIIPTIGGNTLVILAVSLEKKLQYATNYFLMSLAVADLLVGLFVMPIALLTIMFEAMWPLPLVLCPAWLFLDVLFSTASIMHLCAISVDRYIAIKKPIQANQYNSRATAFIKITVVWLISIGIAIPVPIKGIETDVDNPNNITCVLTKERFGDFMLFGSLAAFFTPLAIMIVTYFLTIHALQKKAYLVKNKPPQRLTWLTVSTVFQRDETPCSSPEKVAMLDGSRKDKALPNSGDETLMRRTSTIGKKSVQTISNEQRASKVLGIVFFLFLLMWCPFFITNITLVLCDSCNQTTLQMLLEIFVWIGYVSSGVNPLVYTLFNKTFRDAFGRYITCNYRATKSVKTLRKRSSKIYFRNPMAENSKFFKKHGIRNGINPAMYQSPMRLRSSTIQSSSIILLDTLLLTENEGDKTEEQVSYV
T4 sequence (P28221 whole entry): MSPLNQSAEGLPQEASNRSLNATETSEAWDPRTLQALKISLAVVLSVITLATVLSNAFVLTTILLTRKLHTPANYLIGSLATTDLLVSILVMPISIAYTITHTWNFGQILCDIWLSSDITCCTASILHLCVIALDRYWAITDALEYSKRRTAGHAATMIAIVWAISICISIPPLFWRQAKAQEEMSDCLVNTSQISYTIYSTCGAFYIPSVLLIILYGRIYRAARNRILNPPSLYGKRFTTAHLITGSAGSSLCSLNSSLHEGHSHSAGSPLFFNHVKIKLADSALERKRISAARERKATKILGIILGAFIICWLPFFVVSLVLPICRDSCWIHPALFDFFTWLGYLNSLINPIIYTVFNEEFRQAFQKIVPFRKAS
T2 sequence (P28223 whole entry): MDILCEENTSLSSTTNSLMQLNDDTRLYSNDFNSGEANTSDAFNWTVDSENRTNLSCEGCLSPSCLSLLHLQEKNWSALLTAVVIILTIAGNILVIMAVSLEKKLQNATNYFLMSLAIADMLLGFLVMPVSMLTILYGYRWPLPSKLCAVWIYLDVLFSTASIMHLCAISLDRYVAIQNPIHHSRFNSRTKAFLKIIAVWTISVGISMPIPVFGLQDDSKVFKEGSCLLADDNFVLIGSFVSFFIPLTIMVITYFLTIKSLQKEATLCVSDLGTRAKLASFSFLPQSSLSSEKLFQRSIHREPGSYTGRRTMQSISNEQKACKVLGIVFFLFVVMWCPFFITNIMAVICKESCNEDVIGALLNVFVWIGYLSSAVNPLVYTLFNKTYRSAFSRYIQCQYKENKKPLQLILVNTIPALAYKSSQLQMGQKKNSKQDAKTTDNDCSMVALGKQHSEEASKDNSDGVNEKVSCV
T5 sequence (P28222 whole entry): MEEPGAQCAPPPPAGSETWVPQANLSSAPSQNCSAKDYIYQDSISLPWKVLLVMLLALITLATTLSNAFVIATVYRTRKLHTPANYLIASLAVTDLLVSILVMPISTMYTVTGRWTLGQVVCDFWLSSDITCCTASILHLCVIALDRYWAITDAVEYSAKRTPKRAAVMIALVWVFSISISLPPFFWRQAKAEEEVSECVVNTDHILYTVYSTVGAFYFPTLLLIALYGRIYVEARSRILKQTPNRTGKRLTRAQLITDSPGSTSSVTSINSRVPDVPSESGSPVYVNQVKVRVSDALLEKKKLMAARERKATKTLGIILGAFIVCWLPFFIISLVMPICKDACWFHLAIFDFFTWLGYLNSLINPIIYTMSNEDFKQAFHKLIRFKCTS
Sequence of Recombinant human dopaminergic receptor D1 (P21728 whole entry): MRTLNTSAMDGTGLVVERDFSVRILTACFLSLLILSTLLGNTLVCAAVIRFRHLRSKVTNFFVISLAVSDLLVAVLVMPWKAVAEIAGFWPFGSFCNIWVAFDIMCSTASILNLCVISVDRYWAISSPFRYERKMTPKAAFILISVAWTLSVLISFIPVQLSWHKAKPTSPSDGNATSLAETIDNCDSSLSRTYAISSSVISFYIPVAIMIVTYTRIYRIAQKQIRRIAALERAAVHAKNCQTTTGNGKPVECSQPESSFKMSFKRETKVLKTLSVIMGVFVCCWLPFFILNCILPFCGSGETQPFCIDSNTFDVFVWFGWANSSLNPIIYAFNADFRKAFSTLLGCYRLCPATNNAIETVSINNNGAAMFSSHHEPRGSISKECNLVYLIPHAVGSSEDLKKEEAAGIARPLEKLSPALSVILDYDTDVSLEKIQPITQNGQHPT
Sequence of Recombinant human dopaminergic receptor D2L (P14416 whole entry): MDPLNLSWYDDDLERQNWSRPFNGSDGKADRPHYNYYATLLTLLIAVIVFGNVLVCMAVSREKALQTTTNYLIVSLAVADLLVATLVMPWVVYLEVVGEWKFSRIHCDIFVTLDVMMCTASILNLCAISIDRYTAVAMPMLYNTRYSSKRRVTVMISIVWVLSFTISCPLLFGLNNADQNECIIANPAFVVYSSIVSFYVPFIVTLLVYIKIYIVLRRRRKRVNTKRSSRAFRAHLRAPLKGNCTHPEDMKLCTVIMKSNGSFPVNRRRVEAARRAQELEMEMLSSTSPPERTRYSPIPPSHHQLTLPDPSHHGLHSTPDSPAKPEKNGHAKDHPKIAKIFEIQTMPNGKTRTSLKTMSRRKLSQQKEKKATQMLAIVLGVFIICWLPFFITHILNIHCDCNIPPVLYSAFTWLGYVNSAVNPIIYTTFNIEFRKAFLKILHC

Compound | EC50 ([1]; agonist activity, Aequorin assay, CHO-K1, read-out: EC50 on 5-HT2B receptors) [nM] | 5-HT2B receptor agonist activity in words ([1]; as compared to cabergoline) | EC50 ([2]; agonist activity, Aequorin assay, CHO-K1, read-out: EC50 on 5-HT2A receptors) [nM] | 5-HT2A receptor agonist activity in words ([2]; as compared to cabergoline) | Emax ([3]; GTPγS, receptor not given, follows the D2L/D4 comparison) [%] | D2L to D4 receptor selectivity ([3]; when comparing EC50) [fold] | EC50 [4] [nM] | agonist activity on serotonin receptor 5-HT1D in words [5] | EC50 ([5]; GTPγS, read-out: EC50, agonist on 5-HT1D receptors) [nM] | Emax ([5]; GTPγS, read-out: Emax on 5-HT1D receptors) [%] | selectivity for the D2L receptor over the D1 receptor [6] | activity on 5-HT1B receptors [7] | EC50 [8] [nM] | EC50 [9] [nM] | D2L to D4 receptor selectivity, reported ([10]; reported results for cabergoline) [fold] | Emax, reported ([10]; reported values, Newman-Tancredi et al. 2002, receptor not given) [%] | EC50 [11] [nM] | EC50 ([12]; Newman-Tancredi et al. 2002, read-out: EC50 on 5-HT1D receptors, reported) [nM] | Emax on 5-HT1D receptors, cabergoline comparison ([12]; comparison value for cabergoline) [%]
C=CCN1C[C@H](C(=O)N(CCCN(C)C)C(=O)NCC)C[C@@H]2c3cccc4[nH]c(C(F)(F)F)c(c34)C[C@H]21 [Compound 1] | 6050 | weak | 946 | weak | 26 | 18 | 12.6 | weak agonist activity | 263 | 31 | approximately 110 fold | not active |  |  |  |  |  |  | 
C=CCN1C[C@H](C(=O)N(CCCN(C)C)C(=O)NCC)C[C@@H]2c3cccc4[nH]cc(c34)C[C@H]21 [cabergoline, Cabergoline] |  |  |  |  |  |  |  |  |  |  |  |  | 2240 | 7.8 | ~200 | 49 | 2.6 | 16 | 68
